Laboratory results from patent US10080761B2, “Method for treating recurring skin and mucous membrane diseases caused by HSV-1 and HSV-2” (priority 2013, dated 2018).

Tested on: HSV-1 or HSV-2 infection
Assay: Treatment of a herpes relapse in patients with medium or severe recurring form (Example 1)
Format: in vivo
Conditions: many years of earlier treatment, cream and pills

Nc1nc2c(ncn2COCCO)c(=O)[nH]1 [Aciclovir]
reduction of the number of relapses by previously used preparations: did not reduce the number of relapses
